Assay results reported in US20020137929A1, “1 - (3-heterocyclylphenyl) isothiourea, -isourea, -guanidine and -amidine herbicidal agents” (Intellectual Property Department, BASF Aktiengesellschaft, priority 1998, published 2002).

How the values were obtained:
CASOB (Sicklepod) = assay: Preemergence herbicidal evaluation; assay type: in vivo, Cassia obtusifolia; settings: rated 4-5 weeks after treatment; for CASOB rating: preemergence, 0-9 scale
How it was run: (§1)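 Rating at 4–5 wk post-spray on a 0–9 visual scale vs control. Application: aqueous acetone, ~0.0156–0.500 kg/ha, to soil surface after seeding, preemergence.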

AMBEL (Ragweed, Common) = assay: Postemergence herbicidal evaluation; assay type: in vivo, Ambrosia artemisifolia; settings: postemergence
How it was run: (§2)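 ~2-wk seedlings; postemergence spray, 40 psi; vehicle 1:1 acetone:water + 0.5% Tween 20; rate ≈0.0156–0.500 kg/ha; greenhouse hold; scored 4–5 wk after treatment, 0–9 scale vs control; repeat tests averaged.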

ORYSAT (Rice, Tebonnet) = assay: Postemergence herbicidal evaluation; assay type: in vivo, Oryza sativa, (L.) Tebonnet; settings: postemergence
How it was run: as §2

[1] = test system: TRZAWR (Wheat, Winter, cv Riband); assay: Postemergence herbicidal evaluation; assay type: in vivo, Triticum aestivum; settings: postemergence
How it was run: as §2

[2] = test system: SAGPY (Arrowhead (Pygmaea)); assay: Postemergence weed control under flooded paddy conditions; assay type: in vivo, Sagittaria pygmaea; settings: postemergence weeds
How it was run: (§3)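 Containers holding 3–5 cm weeds and rice at 1.5–2.5 leaves are flooded to 1.5–3 cm above soil. Compound in 50/50 v/v aqueous/acetone is then added directly to the water, about 0.0313–0.500 kg/ha. Plants are kept in the greenhouse and rated 0–9 visually at 3–4 weeks.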

ABUTH (Velvetleaf) [3] = assay: Preemergence herbicidal evaluation; assay type: in vivo, Abutilon theophrasti; settings: rated 4-5 weeks after treatment; for ABUTH rating: preemergence, 0-9 scale
How it was run: as §1

[4] = test system: SAGPY (Arrowhead (Pygmaea)); assay: Preemergence weed control under flooded paddy conditions; assay type: in vivo, Sagittaria pygmaea; settings: rated 3-4 weeks after treatment
How it was run: (§4)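 Visual injury scored 0-9 against control three to four weeks post-treatment, greenhouse-grown. Application: acetone/water (50/50) solutions dosed directly into flood water (1.5-3 cm over silt loam, planted top 0.5 cm), roughly 0.0313 to 0.500 kg/ha active ingredient.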

MOOVA (Monochoria) = assay: as above; assay type: in vivo, Monochoria vaginalis; settings: rated 3-4 weeks after treatment
How it was run: as §4

ECHCG (Barnyardgrass) = assay: Postemergence herbicidal evaluation; assay type: in vivo, Echinochloa crus-galli; settings: postemergence
How it was run: as §2

SETVI (Foxtail, Green) [5] = assay: Preemergence herbicidal evaluation; assay type: in vivo, Setaria viridis; settings: rated 4-5 weeks after treatment; for SETVI rating: preemergence, 0-9 scale
How it was run: as §1

CYPIR (Rice Flatsedge) = assay: Postemergence weed control under flooded paddy conditions; assay type: in vivo, Cyperus iria; settings: postemergence weeds
How it was run: as §3

[6] = test system: GLXMAW (Soybean, Williams); assay: Postemergence herbicidal evaluation; assay type: in vivo, Glycine max, (L.) Merr. cv Williams; settings: postemergence
How it was run: as §2

SETVI (Foxtail, Green) [7] = assay: Postemergence herbicidal evaluation; assay type: in vivo, Setaria viridis; settings: postemergence
How it was run: as §2

ABUTH (Velvetleaf) [8] = assay: Postemergence herbicidal evaluation; assay type: in vivo, Abutilon theophrasti; settings: postemergence
How it was run: as §2

[9] = Rate 0.0313 kg/ha, rated 3 to 4 weeks after treatment
[10] = Rate 0.0625 kg/ha, rated 3 to 4 weeks after treatment
[11] = Rate 0.1250 kg/ha, rated 3 to 4 weeks after treatment
[12] = Rate 0.2500 kg/ha, rated 3 to 4 weeks after treatment
[13] = rate 0.1160 kg/ha, 3-4 weeks after treatment
[14] = rate 0.2310 kg/ha, 3-4 weeks after treatment
[15] = rate 0.4630 kg/ha, 3-4 weeks after treatment

SMILES: C=CCN1C(=O)C(CC(=O)NS(=O)(=O)CC)SC1=Nc1cc(-n2c(=O)cc(C(F)(F)F)n(C)c2=O)c(F)cc1Cl (centres unmarked) [Compound 104, 3-Allyl-2-{{2-chloro-5-[3,6-dihydro-3-methyl-2,6-dioxo-4-(trifluoromethyl)-1(2H)-pyrimidinyl]-4-fluorophenyl}imino}-N-(ethylsulfonyl)-4-oxo-5-thiazolidineacetamide]
- CASOB rating (CASOB (Sicklepod); 0.0625 kg/ha): 0.0
- CASOB rating (CASOB (Sicklepod); 0.1250 kg/ha): 0.0
- CASOB rating (CASOB (Sicklepod); 0.2500 kg/ha): 0.0
- CASOB rating (CASOB (Sicklepod); 0.5000 kg/ha): 0.0
- Herbicidal rating AMBEL (AMBEL (Ragweed, Common); rate 0.0156 kg/ha): 3.0
- Herbicidal rating AMBEL (AMBEL (Ragweed, Common); rate 0.0313 kg/ha): 9.0
- Herbicidal rating AMBEL (AMBEL (Ragweed, Common); rate 0.0625 kg/ha): 9.0
- Herbicidal rating AMBEL (AMBEL (Ragweed, Common); rate 0.1250 kg/ha): 9.0
- Herbicidal rating ORYSAT (ORYSAT (Rice, Tebonnet); rate 0.0156 kg/ha): 0.0
- Herbicidal rating ORYSAT (ORYSAT (Rice, Tebonnet); rate 0.0313 kg/ha): 0.5
- Herbicidal rating ORYSAT (ORYSAT (Rice, Tebonnet); rate 0.0625 kg/ha): 1.0
- Herbicidal rating ORYSAT (ORYSAT (Rice, Tebonnet); rate 0.1250 kg/ha): 2.0
- Herbicidal rating TRZAWR ([1]; rate 0.0156 kg/ha): 3.0
- Herbicidal rating TRZAWR ([1]; rate 0.0313 kg/ha): 3.0
- Herbicidal rating TRZAWR ([1]; rate 0.0625 kg/ha): 4.0
- Herbicidal rating TRZAWR ([1]; rate 0.1250 kg/ha): 4.0
- Herbicidal rating SAGPY [2, 9]: 6.0
- Herbicidal rating SAGPY [2, 10]: 9.0
- Herbicidal rating SAGPY [2, 11]: 9.0
- Herbicidal rating SAGPY [2, 12]: 9.0
- ABUTH rating (ABUTH (Velvetleaf) [3]; 0.0625 kg/ha): 3.0
- ABUTH rating (ABUTH (Velvetleaf) [3]; 0.1250 kg/ha): 8.0
- ABUTH rating (ABUTH (Velvetleaf) [3]; 0.2500 kg/ha): 9.0
- ABUTH rating (ABUTH (Velvetleaf) [3]; 0.5000 kg/ha): 9.0
- SAGPY herbicidal effect rating ([4]; 0.0313 kg/ha): 6.0
- SAGPY herbicidal effect rating ([4]; 0.0625 kg/ha): 9.0
- SAGPY herbicidal effect rating ([4]; 0.1250 kg/ha): 9.0
- SAGPY herbicidal effect rating ([4]; 0.2500 kg/ha): 9.0
- MOOVA herbicidal effect rating (MOOVA (Monochoria); 0.0313 kg/ha): 7.0
- MOOVA herbicidal effect rating (MOOVA (Monochoria); 0.0625 kg/ha): 9.0
- MOOVA herbicidal effect rating (MOOVA (Monochoria); 0.1250 kg/ha): 9.0
- MOOVA herbicidal effect rating (MOOVA (Monochoria); 0.2500 kg/ha): 9.0
- Herbicidal rating ECHCG (ECHCG (Barnyardgrass); rate 0.0156 kg/ha): 0.0
- Herbicidal rating ECHCG (ECHCG (Barnyardgrass); rate 0.0313 kg/ha): 0.0
- Herbicidal rating ECHCG (ECHCG (Barnyardgrass); rate 0.0625 kg/ha): 0.0
- Herbicidal rating ECHCG (ECHCG (Barnyardgrass); rate 0.1250 kg/ha): 3.0
- SETVI rating (SETVI (Foxtail, Green) [5]; 0.0625 kg/ha): 0.0
- SETVI rating (SETVI (Foxtail, Green) [5]; 0.1250 kg/ha): 0.0
- SETVI rating (SETVI (Foxtail, Green) [5]; 0.2500 kg/ha): 0.0
- SETVI rating (SETVI (Foxtail, Green) [5]; 0.5000 kg/ha): 6.0
- Herbicidal rating CYPIR (CYPIR (Rice Flatsedge); [9]): 5.0
- Herbicidal rating CYPIR (CYPIR (Rice Flatsedge); [10]): 9.0
- Herbicidal rating CYPIR (CYPIR (Rice Flatsedge); [11]): 9.0
- Herbicidal rating CYPIR (CYPIR (Rice Flatsedge); [12]): 9.0
- Herbicidal rating GLXMAW ([6]; rate 0.0156 kg/ha): 4.5
- Herbicidal rating GLXMAW ([6]; rate 0.0313 kg/ha): 5.5
- Herbicidal rating GLXMAW ([6]; rate 0.0625 kg/ha): 7.0
- Herbicidal rating GLXMAW ([6]; rate 0.1250 kg/ha): 8.5
- Herbicidal rating SETVI (SETVI (Foxtail, Green) [7]; rate 0.0156 kg/ha): 0.0
- Herbicidal rating SETVI (SETVI (Foxtail, Green) [7]; rate 0.0313 kg/ha): 0.0
- Herbicidal rating SETVI (SETVI (Foxtail, Green) [7]; rate 0.0625 kg/ha): 3.0
- Herbicidal rating SETVI (SETVI (Foxtail, Green) [7]; rate 0.1250 kg/ha): 4.0
- Herbicidal rating ABUTH (ABUTH (Velvetleaf) [8]; rate 0.0156 kg/ha): 7.0
- Herbicidal rating ABUTH (ABUTH (Velvetleaf) [8]; rate 0.0313 kg/ha): 7.0
- Herbicidal rating ABUTH (ABUTH (Velvetleaf) [8]; rate 0.0625 kg/ha): 9.0
- Herbicidal rating ABUTH (ABUTH (Velvetleaf) [8]; rate 0.1250 kg/ha): 9.0

SMILES: CCOC(=O)CN1C(=O)CO/C1=N/c1cc(-n2c(=O)cc(C(F)(F)F)n(C)c2=O)c(F)cc1Cl [Compound 22, Ethyl 2-{{2-chloro-5-[3,6-dihydro-3-methyl-2,6-dioxo-4-(trifluoromethyl)-1(2H)-pyrimidinyl]-4-fluorophenyl}imino}-4-oxo-3-oxazolidineacetate]
- CASOB preemergence herbicidal rating (CASOB (Sicklepod); rate 0.0156 kg/ha): 0.0
- CASOB preemergence herbicidal rating (CASOB (Sicklepod); rate 0.0313 kg/ha): 0.0
- CASOB preemergence herbicidal rating (CASOB (Sicklepod); rate 0.0625 kg/ha): 0.0
- CASOB preemergence herbicidal rating (CASOB (Sicklepod); rate 0.1250 kg/ha): 3.0
- CASOB preemergence herbicidal rating (CASOB (Sicklepod); rate 0.2500 kg/ha): 9.0
- AMBEL herbicidal rating (AMBEL (Ragweed, Common); rate 0.0158 kg/ha): 6.0
- AMBEL herbicidal rating (AMBEL (Ragweed, Common); rate 0.0315 kg/ha): 6.0
- AMBEL herbicidal rating (AMBEL (Ragweed, Common); rate 0.0630 kg/ha): 7.0
- ORYSAT herbicidal rating (ORYSAT (Rice, Tebonnet); rate 0.0158 kg/ha): 2.5
- ORYSAT herbicidal rating (ORYSAT (Rice, Tebonnet); rate 0.0315 kg/ha): 3.0
- ORYSAT herbicidal rating (ORYSAT (Rice, Tebonnet); rate 0.0630 kg/ha): 4.5
- TRZAWR herbicidal rating ([1]; rate 0.0158 kg/ha): 4.0
- TRZAWR herbicidal rating ([1]; rate 0.0315 kg/ha): 3.5
- TRZAWR herbicidal rating ([1]; rate 0.0630 kg/ha): 5.0
- Herbicidal rating SAGPY [2, 13]: 4.0
- Herbicidal rating SAGPY [2, 14]: 4.0
- Herbicidal rating SAGPY [2, 15]: 5.0
- ABUTH preemergence herbicidal rating (ABUTH (Velvetleaf) [3]; rate 0.0156 kg/ha): 9.0
- ABUTH preemergence herbicidal rating (ABUTH (Velvetleaf) [3]; rate 0.0313 kg/ha): 9.0
- ABUTH preemergence herbicidal rating (ABUTH (Velvetleaf) [3]; rate 0.0625 kg/ha): 9.0
- ABUTH preemergence herbicidal rating (ABUTH (Velvetleaf) [3]; rate 0.1250 kg/ha): 9.0
- ABUTH preemergence herbicidal rating (ABUTH (Velvetleaf) [3]; rate 0.2500 kg/ha): 9.0
- Herbicidal rating SAGPY ([4]; 0.1160 kg/ha): 4.0
- Herbicidal rating SAGPY ([4]; 0.2310 kg/ha): 4.0
- Herbicidal rating SAGPY ([4]; 0.4630 kg/ha): 5.0
- Herbicidal rating MOOVA (MOOVA (Monochoria); 0.1160 kg/ha): 9.0
- Herbicidal rating MOOVA (MOOVA (Monochoria); 0.2310 kg/ha): 9.0
- Herbicidal rating MOOVA (MOOVA (Monochoria); 0.4630 kg/ha): 9.0
- ECHCG herbicidal rating (ECHCG (Barnyardgrass); rate 0.0158 kg/ha): 2.0
- ECHCG herbicidal rating (ECHCG (Barnyardgrass); rate 0.0315 kg/ha): 2.0
- ECHCG herbicidal rating (ECHCG (Barnyardgrass); rate 0.0630 kg/ha): 1.0
- SETVI preemergence herbicidal rating (SETVI (Foxtail, Green) [5]; rate 0.0156 kg/ha): 0.0
- SETVI preemergence herbicidal rating (SETVI (Foxtail, Green) [5]; rate 0.0313 kg/ha): 7.0
- SETVI preemergence herbicidal rating (SETVI (Foxtail, Green) [5]; rate 0.0625 kg/ha): 9.0
- SETVI preemergence herbicidal rating (SETVI (Foxtail, Green) [5]; rate 0.1250 kg/ha): 9.0
- SETVI preemergence herbicidal rating (SETVI (Foxtail, Green) [5]; rate 0.2500 kg/ha): 9.0
- Herbicidal rating CYPIR (CYPIR (Rice Flatsedge); [13]): 0.0
- Herbicidal rating CYPIR (CYPIR (Rice Flatsedge); [14]): 0.0
- Herbicidal rating CYPIR (CYPIR (Rice Flatsedge); [15]): 5.0
- GLXMAW herbicidal rating ([6]; rate 0.0158 kg/ha): 5.5
- GLXMAW herbicidal rating ([6]; rate 0.0315 kg/ha): 6.5
- GLXMAW herbicidal rating ([6]; rate 0.0630 kg/ha): 5.5
- SETVI herbicidal rating (SETVI (Foxtail, Green) [7]; rate 0.0158 kg/ha): 3.0
- SETVI herbicidal rating (SETVI (Foxtail, Green) [7]; rate 0.0315 kg/ha): 5.0
- SETVI herbicidal rating (SETVI (Foxtail, Green) [7]; rate 0.0630 kg/ha): 7.0
- ABUTH herbicidal rating (ABUTH (Velvetleaf) [8]; rate 0.0158 kg/ha): 9.0
- ABUTH herbicidal rating (ABUTH (Velvetleaf) [8]; rate 0.0315 kg/ha): 9.0
- ABUTH herbicidal rating (ABUTH (Velvetleaf) [8]; rate 0.0630 kg/ha): 9.0
